Results from PubChem BioAssay (NCI).
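Where inhibition never reached the appropriate level, the endpoint shown equals the highest concentration tested. Otherwise, values were interpolated linearly from a five-concentration, 48-hour dose response in 96-well plates. GI50 = concentration required for 50% inhibition of growth. At the TGI there is no net growth.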

Assays:
Assay in all cases: inhibition of tumour cell growth, NCI panel, 48 h
A549 NSCLC = tested on: A549 NSCLC
COLO 205 colon = tested on: COLO 205 colon
MALME-3M melanoma = tested on: MALME-3M melanoma
OVCAR-4 ovarian = tested on: OVCAR-4 ovarian
RPMI-8226 leukemia = tested on: RPMI-8226 leukemia
RXF 393 renal = tested on: RXF 393 renal
SNB-75 CNS = tested on: SNB-75 CNS
SR leukemia = tested on: SR leukemia
MDA-MB-231 breast = tested on: MDA-MB-231 breast
T-47D breast = tested on: T-47D breast

## O=C(/C=C/c1cccc2ccccc12)c1ccccc1Cl
A549 NSCLC
  TGI: 55.7 µM
COLO 205 colon
  TGI: > 100 µM
MALME-3M melanoma
  TGI: 30.2 µM
OVCAR-4 ovarian
  TGI: 28.5 µM
RPMI-8226 leukemia
  TGI: 47.3 µM
RXF 393 renal
  TGI: 32.4 µM
SNB-75 CNS
  TGI: 30.5 µM
SR leukemia
  TGI: 11.3 µM

## CCC[CH2][Sn]([Cl])([CH2]CCC)[CH2]CCC
A549 NSCLC
  GI50: 0.132 µM
  TGI: 0.32 µM
COLO 205 colon
  GI50: 0.134 µM
  TGI: 0.278 µM
MALME-3M melanoma
  GI50: 0.123 µM
  TGI: 0.265 µM
OVCAR-4 ovarian
  GI50: 0.0998 µM
  TGI: 0.242 µM
RPMI-8226 leukemia
  GI50: 0.0171 µM
  TGI: 0.168 µM
SNB-75 CNS
  GI50: 0.111 µM
  TGI: 0.354 µM
SR leukemia
  GI50: 0.066 µM
  TGI: 0.596 µM

## CCOC(=O)Nc1ccc(C)c(NC(=O)OCC)c1
A549 NSCLC
  TGI: > 100 µM
COLO 205 colon
  TGI: > 100 µM
MALME-3M melanoma
  TGI: > 100 µM
MDA-MB-231 breast
  TGI: > 100 µM
RPMI-8226 leukemia
  TGI: > 100 µM
RXF 393 renal
  TGI: > 100 µM
SNB-75 CNS
  TGI: > 100 µM
SR leukemia
  TGI: > 100 µM
T-47D breast
  TGI: > 100 µM

## Cc1nn(-c2ccc(Cl)cc2)c2nc3c(nc12)C(=O)c1ccccc1-3
A549 NSCLC
  GI50: > 100 µM
  TGI: > 100 µM
COLO 205 colon
  GI50: > 100 µM
  TGI: > 100 µM
MALME-3M melanoma
  GI50: > 100 µM
  TGI: > 100 µM
MDA-MB-231 breast
  GI50: 82.7 µM
  TGI: > 100 µM
RPMI-8226 leukemia
  GI50: > 100 µM
  TGI: > 100 µM
RXF 393 renal
  GI50: > 100 µM
  TGI: > 100 µM
SNB-75 CNS
  GI50: 10.9 µM
  TGI: 46.3 µM
SR leukemia
  GI50: > 100 µM
  TGI: > 100 µM
T-47D breast
  GI50: 17.4 µM
  TGI: 65.6 µM

## O=C(N[C@@H](c1ccc(Cl)c(Cl)c1)C1CNC1)c1ccc2cnccc2c1
A549 NSCLC
  GI50: 0.417 µM
  TGI: 12.5 µM
COLO 205 colon
  GI50: 0.194 µM
  TGI: 1.29 µM
MALME-3M melanoma
  GI50: 0.138 µM
  TGI: 0.7 µM
MDA-MB-231 breast
  GI50: 0.639 µM
  TGI: 15 µM
OVCAR-4 ovarian
  GI50: 1.8 µM
  TGI: 12.7 µM
RPMI-8226 leukemia
  GI50: 1.56 µM
  TGI: 8.87 µM
RXF 393 renal
  GI50: 0.023 µM
  TGI: 0.191 µM
SNB-75 CNS
  GI50: < 0.0125 µM
  TGI: 0.264 µM
T-47D breast
  GI50: 0.0591 µM
  TGI: 3.57 µM

## CCC(C)COC(=O)c1ccc(N=Cc2ccc(C=Nc3ccc(C(=O)OCC(C)CC)cc3)cc2)cc1 (stereo unspecified)
A549 NSCLC
  TGI: > 100 µM
COLO 205 colon
  TGI: > 100 µM
MALME-3M melanoma
  TGI: > 100 µM
OVCAR-4 ovarian
  TGI: > 100 µM
RPMI-8226 leukemia
  TGI: > 100 µM
RXF 393 renal
  TGI: > 100 µM
SNB-75 CNS
  TGI: > 100 µM
SR leukemia
  TGI: > 100 µM

## Cc1[nH]c2ccccc2c1C(=O)/C=C/c1ccccc1O
A549 NSCLC
  TGI: > 100 µM
COLO 205 colon
  TGI: > 100 µM
MALME-3M melanoma
  TGI: > 100 µM
OVCAR-4 ovarian
  TGI: > 100 µM
RXF 393 renal
  TGI: > 100 µM
SNB-75 CNS
  TGI: > 100 µM
SR leukemia
  TGI: > 100 µM

## CCOC(=O)Nc1ccc(-c2nc(-c3cccc(OCCN4CCOCC4)c3)c(-c3ccnc(Br)c3)[nH]2)cc1
A549 NSCLC
  GI50: 3.47 µM
  TGI: > 100 µM
MALME-3M melanoma
  GI50: 1.6 µM
  TGI: 3.46 µM
MDA-MB-231 breast
  GI50: 3.79 µM
  TGI: > 100 µM
OVCAR-4 ovarian
  GI50: 4.36 µM
  TGI: > 100 µM
RPMI-8226 leukemia
  GI50: 1.07 µM
  TGI: 3.78 µM
SNB-75 CNS
  GI50: 1.34 µM
  TGI: 6.91 µM
SR leukemia
  GI50: 2.74 µM
  TGI: > 100 µM
T-47D breast
  GI50: 2.74 µM
  TGI: > 100 µM

## O=C(Nc1ccncc1)C(=O)c1cn(S(=O)(=O)c2ccc(F)cc2)c2ccccc12
A549 NSCLC
  GI50: 18.5 µM
  TGI: > 100 µM
COLO 205 colon
  GI50: 24.7 µM
  TGI: > 100 µM
MALME-3M melanoma
  GI50: 1.61 µM
  TGI: 88.8 µM
MDA-MB-231 breast
  GI50: 5.97 µM
  TGI: > 100 µM
OVCAR-4 ovarian
  GI50: 23.1 µM
  TGI: > 100 µM
RPMI-8226 leukemia
  GI50: 2.54 µM
  TGI: > 100 µM
RXF 393 renal
  GI50: 2.6 µM
  TGI: 8.72 µM
SNB-75 CNS
  GI50: 2.76 µM
  TGI: 15.7 µM
T-47D breast
  GI50: 2.24 µM
  TGI: 61 µM
